{"source": "patent US20160050959A1", "about": "“TABLET COMPRISING FRUCTOSE” (NATURALIA INGREDIENTS S.R.L., priority 2013, published 2016)", "key": {"[1]": {"experiment": "Compressibility (compression force versus tablet hardness)", "type": "physicochemical", "conditions": "98% fructose + 2% leucine, direct compression 12 kN", "procedure": "Compressibility: the compressibility was evaluated by measuring the compression force of the compression machine used and the hardness of the tablet. With the same hardness, the formulation that requires less compression force is more compressible."}, "[2]": {"experiment": "Colour change of tablets after direct compression", "type": "physicochemical", "conditions": "98% fructose + 2% leucine", "procedure": "The tablets were prepared by direct compression, after 15 min. mixing of the ingredients, using a Korsch XL 400 compression machine with force of 12 kN and rotation speed of 20,000 tablets/h."}, "[3]": {"conditions": "studies on mice followed by clinical trials on humans; cited from earlier work"}, "[4]": {"experiment": "Cracking off, operator observation", "type": "physicochemical", "conditions": "98% fructose + 2% leucine; operator evaluation", "procedure": "Cracking off: the cracking off was evaluated directly by the machine operator by observing the tablets both during mould ejection and during the friability test. The tablets must never crack into two mirror-image parts with crack horizontal to the edge, or have visible cracks on the same edge."}, "[5]": {"experiment": "Friability, evaluation by the operator", "type": "physicochemical", "conditions": "98% fructose + 2% leucine", "procedure": "Friability: friability is measured with the friabilimeter and relative method described in Pharmacopoeia Europea (note: in our specific case, an evaluation by the operator was performed, not a measurement)."}, "[6]": {"experiment": "Tablet stability tests / stability to humidity", "type": "physicochemical", "conditions": "tablets of 98% fructose + 2% leucine, grape versus commercial fructose"}, "[7]": {"conditions": "at 20° C.; cited from earlier work"}, "[8]": {"conditions": "listed as crystalline grape fructose"}}, "data": [{"smiles": "O=C(CO)[C@@H](O)[C@H](O)[C@H](O)CO", "note": "[commercial fructose, fructose]", "values": [{"measurement": "Compressibility", "setting": "[1]", "result": "very poor"}, {"measurement": "colour change of tablet", "setting": "[2]", "result": "tendency to form yellow patches"}]}, {"smiles": "O=C(CO)[C@@H](O)[C@H](O)[C@H](O)CO", "note": "[fructose extracted from fruit, fructose]", "values": [{"measurement": "insulin secretion", "setting": "[3]", "result": "very low"}]}, {"smiles": "O=C(CO)[C@@H](O)[C@H](O)[C@H](O)CO", "note": "[grape fructose, fructose]", "values": [{"measurement": "Compressibility", "setting": "[1]", "result": "compressed better"}, {"measurement": "Compressibility", "setting": "[1]; [8]", "result": "compresses well"}, {"measurement": "Cracking off", "setting": "[4]", "result": "does not tend to cracking off"}, {"measurement": "Friability", "setting": "[5]", "result": "is not friable"}, {"measurement": "colour change of tablet", "setting": "[2]", "result": "did not change colour"}, {"measurement": "colour change of tablet", "setting": "[2]; [8]", "result": "does not change colour"}, {"measurement": "stability", "setting": "[6]", "result": "more stable"}, {"measurement": "stability", "setting": "[6]; [8]", "result": "more resistant to the stability tests"}]}, {"smiles": "O=C(CO)[C@@H](O)[C@H](O)[C@H](O)CO", "note": "[fructose]", "values": [{"measurement": "solubility in water", "setting": "[7]", "result": "approx. 80%"}]}]}
